Measured values from patent US20050137220A1 (Pharmacia Corporation, priority 2003, published 2005).
Structures can show the parent of a compound that is named as a salt.

Each molecule was assayed against MK-2 (Homo sapiens, UniProt P49137) (assay: Determination of MK-2 IC50 (phosphorylation of HSP-peptide, anion exchange resin capture assay)). Conditions: additional values are replicate IC50 experiments; mixture of stereoisomers implied unless otherwise noted; read-out: MK-2 Avg. IC50.
Type: biochemical

MK-2, sequence (P49137 whole entry, species assumed): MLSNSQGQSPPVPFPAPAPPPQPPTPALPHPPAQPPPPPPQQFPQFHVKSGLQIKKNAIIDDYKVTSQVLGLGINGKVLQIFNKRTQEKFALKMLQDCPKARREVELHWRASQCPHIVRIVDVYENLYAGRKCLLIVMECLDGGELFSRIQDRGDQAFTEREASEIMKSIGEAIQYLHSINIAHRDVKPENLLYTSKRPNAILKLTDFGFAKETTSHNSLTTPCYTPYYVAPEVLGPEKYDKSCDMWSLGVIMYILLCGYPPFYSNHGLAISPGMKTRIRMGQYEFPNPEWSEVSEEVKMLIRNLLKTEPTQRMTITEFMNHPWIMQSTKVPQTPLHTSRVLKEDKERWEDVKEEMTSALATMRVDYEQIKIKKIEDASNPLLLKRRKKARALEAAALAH

| IC50 [µM] | SMILES |
| --- | --- |
| 69.6 | O=C1NCCc2c1[nH]c1ccc(Br)cc21 [Example 117, 6-bromo-2,3,4,9-tetrahydro-1H-beta-carbolin-1-one] |
| > 200 | CN1C(=O)C(=O)c2c(n(C)c3ccccc23)C1=O [Example 263, 1H-Pyrido[3,4-b]indole-1,3,4(2H,9H)-trione, 2,9-dimethyl- or 2,9-dimethyl-1H-beta-carboline-1,3,4(2H,9H)-trione] |
| 115 | O=C(O)C1NCCc2c1[nH]c1ccc(OCc3ccc(C(F)(F)F)cc3)cc21 (stereo not drawn) [Example 138, 6-{[4-(trifluoromethyl)benzyl]oxy}-2,3,4,9-tetrahydro-1H-beta-carboline-1-carboxylic acid hydrochloride hydrate] |
| > 200 | COC(=O)C1c2[nH]c3ccc(OC)cc3c2CCN1C(C)C (stereo not drawn) [Example 199, methyl 2-isopropyl-6-methoxy-2,3,4,9-tetrahydro-1H-beta-carboline-1-carboxylate] |
| > 200 | COc1ccc2[nH]c3c(c2c1)CCN1COC(=O)C31 (stereo not shown) [Example 236, 8-methoxy-5,6,11,11b-tetrahydro-1H-[1,3]oxazolo[3′,4′:1,2]pyrido[3,4-b]indol-1-one] |
| > 200 | COc1ccc2[nH]c3c(c2c1)C(c1ccccc1)CNC3C(=O)O (stereo not drawn) [Example 210, 6-methoxy-4-phenyl-2,3,4,9-tetrahydro-1H-beta-carboline-1-carboxylic acid hydrochloride] |
| > 200 | COc1ccc2[nH]c3c(c2c1)CCN1CCNC(=O)C31 (stereo not shown) [Example 192, 9-methoxy-3,4,6,7,12,12b-hexahydropyrazino[1′,2′:1,2]pyrido[3,4-b]indol-1(2H)-one] |
| > 200 | CCC(CC)CN1CCc2c([nH]c3ccc(OC)cc23)C1C(=O)O (stereo not drawn) [Example 197, sodium 2-(2-ethylbutyl)-6-methoxy-2,3,4,9-tetrahydro-1H-beta-carboline-1-carboxylate] |
| > 200 | O=C(O)C1NCCc2c1[nH]c1c(OCc3ccccc3)cccc21 (stereo not drawn) [Example 194, 8-(benzyloxy)-2,3,4,9-tetrahydro-1H-beta-carboline-1-carboxylic acid] |
| > 200 | O=C1NCCc2c1[nH]c1ccc(C#Cc3ccccc3)cc21 [Example 248, 6-(phenylethynyl)-2,3,4,9-tetrahydro-1H-beta-carbolin-1-one] |
| > 200 | COc1ccc2[nH]c3c(c2c1)CCN1CC(C)NC(=O)C31 (stereo not shown) [Example 206, 9-methoxy-3-methyl-3,4,6,7,12,12b-hexahydropyrazino[1′, 2′:1 , 2]pyrido[3,4-b]indol-1(2H)-one] |
| 112 | O=C(O)C1NCCc2c1[nH]c1ccc(OCc3ccc(Cl)cc3)cc21 (stereo not drawn) [Example 136, 6-[(4-chlorobenzyl)oxy]-2,3,4,9-tetrahydro-1H-beta-carboline-1-carboxylic acid] |
| > 200 | CCOC(=O)C1c2[nH]c3ccccc3c2CCN1C(=O)c1ccc(OC)o1 (stereo not shown) [Example 211, 1h-Pyrido[3,4-B]Indole-1-Carboxylic Acid, 2,3,4,9-Tetrahydro-2-[(5-Methoxy-2-Furanyl)Carbonyl]-,Ethyl Ester] |
| > 200 | COc1ccc2[nH]c3c(c2c1)C1(CCCCC1)CNC3C(=O)O (stereo not shown) [Example 186, 2′,3′,4′,9′-tetrahydro-6′-methoxy-spiro[cyclohexane-1,4′-[4H]pyrido[3,4-b]indole]-1-carboxylic acid] |
| > 200 | COc1ccc2c(c1)c1c(n2C)C(C(=O)O)NCC1 (stereo not drawn) [Example 182, 6-methoxy-9-methyl-2,3,4,9-tetrahydro-1H-beta-carboline-1-carboxylic acid] |
| > 200 | COc1ccc2c3c([nH]c2c1)C(C(=O)O)NCC3 (stereo not drawn) [Example 217, 7-methoxy-2,3,4,9-tetrahydro-1H-beta-carboline-1-carboxylic acid hydrochloride] |
| > 200 | COc1ccc2[nH]c3c(c2c1)CCNC3C(=O)NN (stereo not drawn) [Example 161, 6-methoxy-2,3,4,9-tetrahydro-1H-beta-carboline-1-carbohydrazide] |
| 182 | COC(=O)c1cccc(COc2ccc3[nH]c4c(c3c2)CCNC4C(=O)O)c1 (stereo not drawn) [Example 159, 6-{[3-(methoxycarbonyl)benzyl]oxy}-2,3,4,9-tetrahydro-1H-beta-carboline-1-carboxylic acid hydrochloride] |

Each molecule was assayed on U937 cells (assay: U937 Cell TNFα Release Assay). Conditions: Homo sapiens, U-937, 4 h, LPS-stimulated differentiated U937 cells, TNFα by ELISA; mixture of stereoisomers implied unless otherwise noted; read-out: TNF Release Assay Avg. IC50.
Type: cell-based, human

| IC50 [µM] | SMILES |
| --- | --- |
| 42.6 | O=C(O)C1c2[nH]c3ccc(O)cc3c2C2CCN1C2 (stereo not shown) [Example 2, 7-hydroxy-3,4,5,10-tetrahydro-1H-2,5-methanoazepino[3,4-b]indole-1-carboxylic acid hydrochloride] |

Same assay, conditions: Homo sapiens, U-937, 4 h, read-out: TNF Release Assay Avg. IC50, LPS-stimulated differentiated U937 cells, TNFα by ELISA; mixture of stereoisomers implied unless otherwise noted

| SMILES | IC50 [µM] |
| --- | --- |
| COc1ccc2[nH]c3c(c2c1)CCN[C@@H]3C(=O)O [Example 67, (1S)-6-methoxy-2,3,4,9-tetrahydro-1H-beta-carboline-1-carboxylic acid] | > 100 |
| COc1ccc2[nH]c3c(c2c1)C(Cc1ccccc1)CNC3C(=O)O (stereo not drawn) [Example 71, 4-benzyl-6-methoxy-2,3,4,9-tetrahydro-1H-beta-carboline-1-carboxylic acid] | 54 |
| O=C(O)C1NCCc2c1[nH]c1ccc(OCc3ccccc3)cc21 (stereo not drawn) [Example 64, 6-(benzyloxy)-2,3,4,9-tetrahydro-1H-beta-carboline-1-carboxylic acid hydrochloride] | 85.1 |
| COc1ccc2[nH]c3c(c2c1)C(C)CNC3C(=O)O (stereo not drawn) [Example 22, 6-methoxy-4-methyl-2,3,4,9-tetrahydro-1H-beta-carboline-1-carboxylic acid] | 92.2 |
| COc1cccc2[nH]c3c(c12)CCNC3C(=O)O (stereo not drawn) [Example 103, 5-methoxy-2,3,4,9-tetrahydro-1H-beta-carboline-1-carboxylic acid hydrochloride] | 92.6 |
| COc1ccc2[nH]c3c(c2c1)CC(CO)NC3C(=O)O (stereo not drawn) [Example 24, 3-(hydroxymethyl)-6-methoxy-2,3,4,9-tetrahydro-1H-beta-carboline-1-carboxylic acid] | > 100 |
| CCC1CNC(C(=O)O)c2[nH]c3ccc(OC)cc3c21 (stereo not drawn) [Example 21, 4-ethyl-6-methoxy-2,3,4,9-tetrahydro-1H-beta-carboline-1-carboxylic acid hydrochloride] | > 100 |

Same assay, conditions: Homo sapiens, U-937, LPS-stimulated differentiated U937 cells, TNFα by ELISA; mixture of stereoisomers implied unless otherwise noted; read-out: TNF Release Assay Avg. IC50

| SMILES | IC50 [µM] |
| --- | --- |
| O=C(OCc1ccccc1)C1c2[nH]c3ccc(O)cc3c2C2CCN1C2 (stereo not shown) [Example 63, benzyl 7-hydroxy-3,4,5,10-tetrahydro-1H-2,5-methanoazepino[3,4-b]indole-1-carboxylate hydrochloride] | 35.9 |

Same assay, conditions: Homo sapiens, U-937, read-out: TNF Release Assay Avg. IC50, LPS-stimulated differentiated U937 cells, TNFα by ELISA; mixture of stereoisomers implied unless otherwise noted

| SMILES | IC50 [µM] |
| --- | --- |
| COc1ccc2[nH]c3c(c2c1)C1CCN(C1)C3C(=O)OCC(O)CO (stereo not shown) [Example 20, 2,3-dihydroxypropyl 7-methoxy-3,4,5,10-tetrahydro-1H-2,5-methanoazepino[3,4-b]indole-1-carboxylate hydrochloride] | > 100 |
| COc1ccc2[nH]c3c(c2c1)C1CCN(C1)C3C(=O)OCCSC (stereo not shown) [Example 32, hydrochloride] | 29.9 |
| CCOC(=O)C1c2[nH]c3ccc(OC)cc3c2C2CCN1C2 (stereo not shown) [Example 92, ethyl 7-methoxy-3,4,5,10-tetrahydro-1H-2,5-methanoazepino[3,4-b]indole-1-carboxylate trifluoroacetate] | 5.61 |
| COc1ccc2[nH]c3c(c2c1)C1CCN(C1)C3C(=O)OC1CCCCC1 (stereo not shown) [Example 105, hydrochloride] | > 100 |
| C=CCOC(=O)C1c2[nH]c3ccc(OC)cc3c2C2CCN1C2 (stereo not shown) [Example 28, allyl 7-methoxy-3,4,5,10-tetrahydro-1H-2,5-methanoazepino[3,4-b]indole-1-carboxylate hydrochloride] | 14.5 |
| COc1ccc2[nH]c3c(c2c1)C1CCN(C1)C3C(=O)NCc1ccccc1 (stereo not shown) [Example 243, N-benzyl-7-methoxy-3,4,5,10-tetrahydro-1H-2,5-methanoazepino[3,4-b]indole-1-carboxamide hydrochloride] | > 100 |
| COC(=O)C1c2[nH]c3ccc(OCc4ccccc4)cc3c2C2CCN1C2 (stereo not shown) [Example 91, methyl 7-(benzyloxy)-3,4,5,10-tetrahydro-1H-2,5-methanoazepino[3,4-b]indole-1-carboxylate compound with trifluoroacetic acid (1:1)] | 24 |
| COc1ccc2[nH]c3c(c2c1)C1CCN(C1)C3C(=O)OC1C(C)(C)CCCC1(C)C (stereo not shown) [Example 152, 2,2,6,6-tetramethylcyclohexyl 7-methoxy-3,4,5,10-tetrahydro-1H-2,5-methanoazepino[3,4-b]indole-1-carboxylate trifluoroacetate] | 21.8 |
| COc1ccc2[nH]c3c(c2c1)C1CCN(C1)C3C(=O)OCC1CCCCC1 (stereo not shown) [Example 99, cyclohexylmethyl 7-methoxy-3,4,5,10-tetrahydro-1H-2,5-methanoazepino[3,4-b]indinole-1-carboxylate hydrochloride] | 9.83 |
| COc1ccc2[nH]c3c(c2c1)C1CCN(C1)C3C(=O)OCC(C)(C)C (stereo not shown) [Example 84, hydrochloride] | 41 |
| COc1ccc2[nH]c3c(c2c1)C1CCN(C1)C3C(=O)OC(C)C (stereo not shown) [Example 59, isopropyl 7-methoxy-3,4,5,10-tetrahydro-1H-2,5-methanoazepino[3,4-b]indole-1-carboxylate hydrochloride] | > 100 |
| COc1ccc2[nH]c3c(c2c1)C1CCN(C1)C3C(=O)OCCF (stereo not shown) [Example 26, trifluoroacetate] | 2.04 |

Same assay, conditions: read-out: TNF Release Assay Avg. IC50; LPS-stimulated differentiated U937 cells, TNFα by ELISA; mixture of stereoisomers implied unless otherwise noted; hydrochloride

| SMILES | IC50 [µM] |
| --- | --- |
| CCCOC(=O)C1c2[nH]c3ccc(OC)cc3c2C2CCN1C2 (stereo not shown) [Example 90, propyl 7-methoxy-3,4,5,10-tetrahydro-1H-2,5-methanoazepino[3,4-b]indole-1-carboxylate hydrochloride] | 47.9 |
